Among the data in ChEMBL document CHEMBL3853278, “Metabolomic Profiling Reveals the N-Acyl-Taurine Geodiataurine in Extracts from the Marine Sponge Geodia macandrewii (Bowerbank)” (J Nat Prod, 2016) are IC50 values, retold here.

This test is described as follows: Cytotoxicity in human A2058 cells assessed as reduction in cell viability after 72 hrs by cell titer 96 aqueous one assay. It counts as functional, cell-based. The following applies: A2058, 72 h.

As a reminder, the IC50 is the point on the concentration scale where inhibition reaches its midpoint.

Regarding `CC(C)=CCC/C(C)=C/CC/C(C)=C/CCC(C)C(=O)NCCS(=O)(=O)O` (stereo unspecified), the IC50 was 8.5 µM.
